In patent publication US20220226298A1, “GPR40 AGONISTS” (Kallyope, Inc., priority 2019, published 2022):

Target: T1, human GPR40 (Homo sapiens, UniProt O14842)
T1 construct: host or cells: CHO-K1
Experiment: Inositol phosphate accumulation assay (IP1 HTRF) in CHO-K1 cells expressing human GPR40
Format: cell-based
Conditions: 90 min stimulation
Experimental: CHO-KI cells expressing human GPR40 were purchased from DiscoverX (95-1005C2). HEK293 cells expressing mouse FFAR1 were prepared using a mouse FFAR1 carrying plasmid purchased from OriGene Technologies (MR222997). The cells were transfected using Lipofectamine 2000 using manufacturer instructions and stable cell line was established from a single cell using geneticine selection. Assay ready frozen (ARF) cells were prepared and used throughout the study.
The assay was performed in a 384-well plate format using IP1 assay kit from Cis-Bio. ARF cells expressing FFAR1 (mouse and human) were thawed, washed and then plated in the appropriate medium (F12 based medium for CHO hFFAR1 and DMEM based medium for HEK293 mFFAR1—both were supplemented with 10% FBS and penicillin/streptomycin). 20 μL of 3.5×10^5 cells/mL were plated on a Poly D-Lysine coated 384-well white plate. The cells were then incubated for 16 hr at 37° C./5% CO2. After 16 hr the medium was removed and 15 μL of stimulation buffer containing the test compounds was added to the cells. The plates were then incubated for 90 min at 37° C./5% CO2. 5 μL of detection buffer (prepared as described in the IP-one kit) was added to each well and the plates were incubated at RT for 1 hr.
[…] was measured using ClarioSTAR plate reader, calculating the ratio between emissions at 665 nm and 620 nm (HTRF ratio). HTRF ratio for positive (Max) and negative (Min) controls were used to normalize HTRF data and generate values for % activity. EC50 and Max activity values were determined using a standard 4-parameter fit.

T1 sequence (O14842 whole entry): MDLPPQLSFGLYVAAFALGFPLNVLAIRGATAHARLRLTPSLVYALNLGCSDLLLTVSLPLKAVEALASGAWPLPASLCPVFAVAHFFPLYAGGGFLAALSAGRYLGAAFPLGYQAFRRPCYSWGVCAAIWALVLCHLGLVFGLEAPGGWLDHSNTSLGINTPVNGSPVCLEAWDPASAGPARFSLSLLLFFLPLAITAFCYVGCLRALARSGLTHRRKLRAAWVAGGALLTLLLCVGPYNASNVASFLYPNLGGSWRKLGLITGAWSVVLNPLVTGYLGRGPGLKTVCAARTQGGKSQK

Compound	EC50
COc1cc(-c2cc(C)c(C(=O)Oc3cccc([C@@H](CC(=O)O)C4CC4)c3)c(F)c2)ccn1 [Compound 18]	100 to 500 nM
COc1cc(-c2cc(C)c(C(=O)Oc3cccc([C@@H](CC(=O)O)C4CC4)c3)cc2CN(C(C)C)C(C)C)c(F)cn1 [Compound 19]	10 to 100 nM
COc1cc(-c2ccc(C(=O)Oc3cccc([C@H](C4CC4)[C@H](C)C(=O)O)c3)cc2CN(C(C)C)C(C)C)ccn1 [Compound 28]	≤ 10 nM
O=C(O)C[C@H](c1cccc(OC(=O)c2ccc(-c3cc(O)ccc3F)cc2)c1)C1CC1 [Compound 2]	10 to 100 nM
CC(c1cc(C(F)(F)F)ccc1C(F)(F)F)N1CC(C)(C(=O)Oc2cccc([C@@H](CC(=O)O)C3CC3)c2)C1 (some centres unmarked) [Compound 12]	10 to 100 nM
COc1ccc(F)c(-c2cc(C(=O)Oc3cccc([C@@H](CC(=O)O)C4CC4)c3)on2)c1 [Compound 7, (S)-3-cyclopropyl-3-(3-((3-(2-fluoro-5-methoxyphenyl)isoxazole-5-carbonyl)oxy)phenyl)propanoic acid]	> 500 nM
CCN(Cc1cc(C(=O)Oc2cccc([C@@H](CC(=O)O)C3CC3)c2)c(C)cc1-c1cc(OC)ncc1F)C(C)C [Compound 11, (S)-3-cyclopropyl-3-(3-((5-((ethyl(isopropyl)amino)methyl)-4-(5-fluoro-2-methoxypyridin-4-yl)-2-methylbenzoyl)oxy)phenyl)propanoic acid]	100 to 500 nM
CC(c1cc(C(F)(F)F)ccc1C(F)(F)F)N1CCC(C(=O)Oc2cccc([C@@H](CC(=O)O)C3CC3)c2)C1 (stereo partly drawn) [Compound 8, (3S)-3-(3-((1-(1-(2,5-bis(trifluoromethyl)phenyl)ethyl)pyrrolidine-3-carbonyl)oxy)phenyl)-3-cyclopropylpropanoic acid]	10 to 100 nM
COc1cc(-c2cc(F)c(C(=O)Oc3cccc([C@H](C4CC4)[C@H](C)C(=O)O)c3)cc2CN(C(C)C)C(C)C)ccn1 [Compound 24]	≤ 10 nM
COc1ccc(F)c(-c2nocc2C(=O)Oc2cccc([C@@H](CC(=O)O)C3CC3)c2)c1 [Compound 5, (3S)-3-cyclopropyl-3-[3-[3-(2-fluoro-5-methoxy-phenyl)isoxazole-4-carbonyl]oxyphenyl]propanoic acid]	> 500 nM
COc1cc(-c2ccc(C(=O)Oc3cccc([C@H](C4CC4)[C@H](C)C(=O)O)c3)c(C)c2)ccn1 [Compound 29]	≤ 10 nM
COc1cc(-c2ccc(C(=O)Oc3cccc([C@H](C4CC4)[C@H](C)C(=O)O)c3)c(C)c2)c(F)cn1 [Compound 14]	≤ 10 nM
COc1cc(-c2ccc(C(=O)Oc3cccc([C@@H](CC(=O)O)C4CC4)c3)c(F)c2)ccn1 [Compound 17]	100 to 500 nM
CC(c1cc(C(F)(F)F)ccc1C(F)(F)F)N1CCC(C(=O)Oc2cccc([C@H](C3CC3)[C@H](C)C(=O)O)c2)CC1 (stereo partly drawn) [Compound 22, (2S,3R)-3-(3-((1-(1-(2,5-bis(trifluoromethyl)phenyl)ethyl)piperidine-4-carbonyl)oxy)phenyl)-3-cyclopropyl-2-methylpropanoic acid]	≤ 10 nM
COc1cc(-c2cc(C)c(C(=O)Oc3cccc([C@H](C4CC4)[C@H](C)C(=O)O)c3)cc2CN(C(C)C)C(C)C)c(F)cn1 [Compound 21, (2S,3R)-3-cyclopropyl-3-(3-((5-((diisopropylamino)methyl)-4-(5-fluoro-2-methoxypyridin-4-yl)-2-methylbenzoyl)oxy)phenyl)-2-methylpropanoic acid]	≤ 10 nM
COc1cc(-c2ccc(C(=O)Oc3cccc([C@@H](CC(=O)O)C4CC4)c3)c(C)c2)c(F)cn1 [Compound 10, (S)-3-cyclopropyl-3-(3-((4-(5-fluoro-2-methoxypyridin-4-yl)-2-methylbenzoyl)oxy)phenyl)propanoic acid]	100 to 500 nM

Continued, values first:

EC50	Compound
> 500 nM	COc1cc(-c2ccc(C(=O)Oc3cccc([C@H](C4CC4)[C@H](C)C(=O)O)c3)cc2CN(C[C@H](O)[C@@H](O)[C@H](O)[C@H](O)CO)C(C)C)c(F)cn1 [Compound 35, (2S,3R)-3-cyclopropyl-3-(3-((4-(5-fluoro-2-methoxypyridin-4-yl)-3-((isopropyl((2S,3R,4R,5R)-2,3,4,5,6-pentahydroxyhexyl)amino)methyl)benzoyl)oxy)phenyl)-2-methylpropanoic acid]
> 500 nM	COc1cc(-c2cc(C)c(C(=O)Oc3cccc([C@@H](CP(C)(=O)O)C4CC4)c3)cc2CN(C(C)C)C(C)C)c(F)cn1 (single isomer, unassigned) [Compound 71b]
> 500 nM	CC(c1cc(C(F)(F)F)ccc1C(F)(F)F)N1CC[C@H](OC(=O)c2cccc([C@@H](CC(=O)O)C3CC3)c2)C1 (some centres unmarked) [Compound 49]
> 500 nM	CC(c1cc(C(F)(F)F)ccc1C(F)(F)F)N1CCC(OC(=O)c2cccc([C@@H](CC(=O)O)C3CC3)c2)CC1 (stereo partly drawn) [Compound 46, (3S)-3-(3-(((1-(1-(2,5-bis(trifluoromethyl)phenyl)ethyl)piperidin-4-yl)oxy)carbonyl)phenyl)-3-cyclopropylpropanoic acid]
100 to 500 nM	O=C(O)C[C@H](c1cccc(C(=O)Oc2ccc(-c3cc(O)ccc3F)cc2)c1)C1CC1 [Compound 43]
≤ 10 nM	COc1cc(-c2ccc(C(=O)Oc3cccc([C@H](C4CC4)[C@H](C)C(=O)O)c3F)cc2CN(C(C)C)C(C)C)c(F)cn1 [Compound 69, (2S,3R)-3-cyclopropyl-3-[3-[3-[(diisopropylamino)methyl]-4-(5-fluoro-2-methoxy-4-pyridyl)benzoyl]oxy-2-fluoro-phenyl]-2-methyl-propanoic acid]
≤ 10 nM	COc1cc(-c2ccc(OC(=O)c3cccc([C@H](C4CC4)[C@@](C)(F)C(=O)O)c3)cc2CN(C(C)C)C(C)C)c(F)cn1 [Compound 63, (2R, 3S)-3-cyclopropyl-3-(3-((3-((diisopropylamino)methyl)-4-(5-fluoro-2-methoxypyridin-4-yl)phenoxy)carbonyl)phenyl)-2-fluoro-2-methylpropanoic acid]
≤ 10 nM	COc1cc(-c2ccc(C(=O)Oc3cccc([C@H](C4CC4)[C@H](C)C(=O)O)c3)cc2CN2CCCC2(C)C)c(F)cn1 [Compound 32]
≤ 10 nM	COc1cc(-c2cc(F)c(OC(=O)c3cccc([C@H](C4CC4)[C@H](C)C(=O)O)c3)cc2CN(C(C)C)C(C)C)ccn1 [Compound 59, (2S,3R)-3-cyclopropyl-3-(3-((5-((diisopropylamino)methyl)-2-fluoro-4-(2-methoxypyridin-4-yl)phenoxy)carbonyl)phenyl)-2-methylpropanoic acid]
≤ 10 nM	CCN(Cc1cc(C(=O)Oc2cccc([C@H](C3CC3)[C@H](C)C(=O)O)c2)ccc1-c1cc(OC)ccc1F)C(C)C [Compound 30]
≤ 10 nM	CCN(Cc1cc(C(=O)Oc2cccc([C@H](C3CC3)[C@@](C)(F)C(=O)O)c2)ccc1-c1cc(OC)ccc1F)C(C)C [Compound 38]
≤ 10 nM	CCN(Cc1cc(C(=O)Oc2cccc([C@H](C3CC3)[C@@](C)(F)C(=O)O)c2)ccc1-c1cc(OC)ncc1F)C(C)C [Compound 37]
> 500 nM	COc1cc(-c2cc(C)c(C(=O)Oc3cccc(C(CP(C)(=O)O)C4CC4)c3)cc2CN(C(C)C)C(C)C)c(F)cn1 (centres unmarked) [Compound 70, (2-cyclopropyl-2-(3-((5-((diisopropylamino)methyl)-4-(5-fluoro-2-methoxypyridin-4-yl)-2-methylbenzoyl)oxy)phenyl)ethyl)(methyl)phosphinic acid]
≤ 10 nM	COc1cc(-c2ccc(OC(=O)c3cccc([C@H](C4CC4)[C@H](C)C(=O)O)c3)c(C)c2)c(F)cn1 [Compound 56]
100 to 500 nM	COc1cc(-c2ccc(OC(=O)c3cccc([C@@H](CC(=O)O)C4CC4)c3)cc2)c(F)cn1 [Compound 44]
> 500 nM	COc1cc(-c2cc(C)c(C(=O)Oc3cccc([C@H](CP(C)(=O)O)C4CC4)c3)cc2CN(C(C)C)C(C)C)c(F)cn1 (single isomer, unassigned) [Compound 71a]
≤ 10 nM	COc1cc(-c2ccc(OC(=O)c3cccc([C@H](C4CC4)[C@H](C)C(=O)O)c3)cc2)c(F)cn1 [Compound 54]
≤ 10 nM	COc1ccc(F)c([C@H]2CC[C@H](C(=O)Oc3cccc([C@H](C4CC4)[C@@](C)(F)C(=O)O)c3)CC2)c1 [Compound 62]
> 500 nM	COc1cc(-c2ccc(C(=O)Oc3cccc(C(CS(=O)(=O)O)C4CC4)c3)cc2CN(C(C)C)C(C)C)c(F)cn1 (centres unmarked) [Compound 67, 2-cyclopropyl-2-(3-((3-((diisopropylamino)methyl)-4-(5-fluoro-2-methoxypyridin-4-yl)benzoyl)oxy)phenyl)ethanesulfonic acid]
≤ 10 nM	COc1cc(-c2ccc(OC(=O)c3cccc([C@H](C4CC4)[C@H](C)C(=O)O)c3)cc2CN(C(C)C)C(C)C)c(F)cn1 [Compound 58]
≤ 10 nM	COC(=O)c1cnc(OC)cc1-c1ccc(C(=O)Oc2cccc([C@H](C3CC3)[C@H](C)C(=O)O)c2)cc1CN(C(C)C)C(C)C [Compound 53]
≤ 10 nM	CCN(Cc1cc(C(=O)Oc2cccc([C@H](C3CC3)[C@H](C)C(=O)O)c2)ccc1-c1cc(OC)ncc1F)C(C)C [Compound 34, (2S,3R)-3-cyclopropyl-3-(3-((3-((ethyl(isopropyl)amino)methyl)-4-(5-fluoro-2-methoxypyridin-4-yl)benzoyl)oxy)phenyl)-2-methylpropanoic acid]
